Literature values as cited in article PMC8819907 (Journal of Experimental & Clinical Cancer Research : CR, 2022).

Tests used:
[1] = tested on: patients with advanced solid tumors; design: method as in ref 27 (a number printed in a supplementary file, which may have a reference list of its own: not looked up in the article's list); details: cited from earlier work
[2] = only detectable minor component in blood; cited from earlier work
[3] = design: method as in PMID 32696585; details: cited from earlier work
KRAS-mutant NSCLC = tested on: KRAS-mutant NSCLC; design: method as in ref 24 (a number printed in a supplementary file, which may have a reference list of its own: not looked up in the article's list); details: cited from earlier work
[4] = tested on: recurrent low-grade serous carcinoma of the ovary or peritoneum; design: method as in ref 33,34 (a number printed in a supplementary file, which may have a reference list of its own: not looked up in the article's list); details: 8/52 patients; cited from earlier work
[5] = tested on: metastatic biliary tract cancers; design: method as in ref 33,34 (a number printed in a supplementary file, which may have a reference list of its own: not looked up in the article's list); details: 3/25 response evaluable patients; cited from earlier work

In the case of `Cn1ncc(Cl)c1-c1cc(C(=O)N[C@H](CN)Cc2ccc(F)c(F)c2)oc1Cl` [GSK2141795], the “RP2D for single agent” value [1] is given as 75 mg/day.
In the case of `Cc1c(=O)n(C)c(Nc2ccc(I)cc2F)c2c(=O)n(C3CC3)c(=O)n(-c3cccc(N)c3)c12` [M5], the “share of the blood radioactivity” value [2] is listed as under 7%.
For `O=C(c1ccc(F)c(F)c1Nc1ccc(I)cc1F)N1CC(O)([C@@H]2CCCCN2)C1` [cobimetinib], the “total AUC0−∞ lower, severe hepatic impairment vs normal hepatic function” value [3] is listed as about 30% and the “unbound AUC0−∞ higher, severe hepatic impairment vs normal hepatic function” value [3] is listed as about 2 fold.
In the case of `CC(=O)O[C@@]12CO[C@@H]1C[C@H](O)[C@@]1(C)C(=O)[C@H](O)C3=C(C)[C@@H](OC(=O)[C@H](O)[C@@H](NC(=O)OC(C)(C)C)c4ccccc4)C[C@@](O)([C@@H](OC(=O)c4ccccc4)[C@H]21)C3(C)C` [docetaxel], the “median PFS” value (KRAS-mutant NSCLC) is listed as 11.4 weeks and the “overall response rate (ORR)” value (KRAS-mutant NSCLC) is listed as 12%.
In the case of `Cn1cnc2c(F)c(Nc3ccc(Br)cc3Cl)c(C(=O)NOCCO)cc21` [selumetinib], the overall response rate [4] is listed as 15% and the overall response rate [5] is listed as 12%.
